Test results: PubChem BioAssay AID1963868 (Molecular Pharmacology Branch, DTP, NCI, 2024)

Tested on: KRAS PDC tumor spheroids (HUVEC+MSC), viability
Assay: Anticancer human tumor 254851-301-R-J1-PDC patient-derived colon carcinoma cell line growth inhibition [KRAS2]
Settings: for viability, T/C: stronger effect = lower value
Method in brief: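 KRAS-mutant tumor cells were grown as spheroids with HUVEC endothelial cells and human MSCs as stroma. Targeted agents were tested alone and with KRAS pathway inhibitors. Doses started at or near clinical Cmax, or 10 microM, descending half-log.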

[1] = curve of first compound, second compound 0.1 µM
[2] = curve of first compound, second compound 0.316 µM
[3] = curve of first compound, second compound 1 µM
[4] = curve of first compound, second compound 3.16 µM
[5] = curve of first compound, second compound 10 µM
[6] = second compound 0.1 µM, first compound 0.0316 µM
[7] = second compound 0.1 µM, first compound 0.1 µM
[8] = second compound 0.316 µM, first compound 0.0316 µM
[9] = second compound 0.316 µM, first compound 0.1 µM
[10] = second compound 1 µM, first compound 0.0316 µM
[11] = second compound 1 µM, first compound 0.1 µM
[12] = second compound 3.16 µM, first compound 0.0316 µM
[13] = second compound 3.16 µM, first compound 0.1 µM
[14] = second compound 10 µM, first compound 0.0316 µM
[15] = second compound 10 µM, first compound 0.1 µM
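Also: spheroids exposed to compounds for seven days before readout.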
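For viability, T/C in this document: 100% = DMSO vehicle control luminescence of the spheroids.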

`CC1(C)CCC(CN2CCN(c3ccc(C(=O)NS(=O)(=O)c4ccc(NCC5CCOCC5)c([N+](=O)[O-])c4)c(Oc4cnc5[nH]ccc5c4)c3)CC2)=C(c2ccc(Cl)cc2)C1` was tested, and the viability, T/C (compound 0.0316 µM) was 103% [middle of 5 runs], the viability, T/C (compound 0.1 µM) was 102% [middle of 5 runs] and the viability, T/C (compound 0.316 µM) was 101% [middle of 5 runs]. The viability, T/C (compound 1 µM) was 102% [middle of 5 runs], the viability, T/C (compound 3.16 µM) was 96.3% [middle of 5 runs] and the viability, T/C (compound 10 µM) was 92.8% [middle of 5 runs]. The IC50 (curve of compound) was over 10000 nM.

In the case of `CC(C)n1nc(-c2ccc3oc(N)nc3c2)c2c(N)ncnc21` + C=CC(=O)N1CCN(c2nc(=O)n(-c3c(C)ccnc3C(C)C)c3nc(-c4c(O)cccc4F)c(F)cc23)C(C)C1, the IC50 [1] is reported as 19.1 nM, the IC50 [2] is reported as 21.6 nM and the IC50 [3] is reported as 13.3 nM. The IC50 [4] was 20.1 nM, the IC50 [5] was 18.1 nM and the viability, T/C (second compound 0.1 µM, first compound 0.000316 µM) was 107%. It also gave a viability, T/C (second compound 0.1 µM, first compound 0.001 µM) of 110%, a viability, T/C (second compound 0.1 µM, first compound 0.00316 µM) of 92.8% and a viability, T/C (second compound 0.1 µM, first compound 0.01 µM) of 72.8%. It also gave a viability, T/C [6] of 32.3%, a viability, T/C [7] of 19.8% and a viability, T/C (second compound 0.316 µM, first compound 0.000316 µM) of 105%. It also gave a viability, T/C (second compound 0.316 µM, first compound 0.001 µM) of 104%, a viability, T/C (second compound 0.316 µM, first compound 0.00316 µM) of 97.7% and a viability, T/C (second compound 0.316 µM, first compound 0.01 µM) of 71.2%. The viability, T/C [8] was 39.8%, the viability, T/C [9] was 23.1% and the viability, T/C (second compound 1 µM, first compound 0.000316 µM) was 116%. It also gave a viability, T/C (second compound 1 µM, first compound 0.001 µM) of 113%, a viability, T/C (second compound 1 µM, first compound 0.00316 µM) of 102% and a viability, T/C (second compound 1 µM, first compound 0.01 µM) of 54.7%. It also gave a viability, T/C [10] of 34.3%, a viability, T/C [11] of 21.9% and a viability, T/C (second compound 3.16 µM, first compound 0.000316 µM) of 103%. It also gave a viability, T/C (second compound 3.16 µM, first compound 0.001 µM) of 117%, a viability, T/C (second compound 3.16 µM, first compound 0.00316 µM) of 89.7% and a viability, T/C (second compound 3.16 µM, first compound 0.01 µM) of 73.5%. For the same compound, the viability, T/C [12] was 34.7%, the viability, T/C [13] was 22.8% and the viability, T/C (second compound 10 µM, first compound 0.000316 µM) was 98.9%. It also gave a viability, T/C (second compound 10 µM, first compound 0.001 µM) of 109%, a viability, T/C (second compound 10 µM, first compound 0.00316 µM) of 88.5% and a viability, T/C (second compound 10 µM, first compound 0.01 µM) of 66.4%. The viability, T/C [14] was 35.1% and the viability, T/C [15] was 24%.

`CC(C)NCC(C(=O)N1CCN(c2ncnc3c2C(C)CC3O)CC1)c1ccc(Cl)cc1` (configuration not stated) + C=CC(=O)N1CCN(c2nc(=O)n(-c3c(C)ccnc3C(C)C)c3nc(-c4c(O)cccc4F)c(F)cc23)C(C)C1 was tested, and the IC50 [1] was over 10000 nM, the IC50 [2] was over 10000 nM and the IC50 [3] was over 10000 nM. The IC50 [4] was over 10000 nM, the IC50 [5] was over 10000 nM and the viability, T/C [6] was 98.2%. The viability, T/C [7] was 105%, the viability, T/C (second compound 0.1 µM, first compound 0.316 µM) was 92.1% and the viability, T/C (second compound 0.1 µM, first compound 1 µM) was 98.6%. It also gave a viability, T/C (second compound 0.1 µM, first compound 3.16 µM) of 98.4%, a viability, T/C (second compound 0.1 µM, first compound 10 µM) of 97% and a viability, T/C [8] of 97.4%. It also gave a viability, T/C [9] of 92.6%, a viability, T/C (second compound 0.316 µM, first compound 0.316 µM) of 91.7% and a viability, T/C (second compound 0.316 µM, first compound 1 µM) of 96.4%. For the same compound, the viability, T/C (second compound 0.316 µM, first compound 3.16 µM) was 89.2%, the viability, T/C (second compound 0.316 µM, first compound 10 µM) was 89.8% and the viability, T/C [10] was 96.9%. For the same compound, the viability, T/C [11] was 99.9%, the viability, T/C (second compound 1 µM, first compound 0.316 µM) was 93% and the viability, T/C (second compound 1 µM, first compound 1 µM) was 86.1%. It also gave a viability, T/C (second compound 1 µM, first compound 3.16 µM) of 92.5%, a viability, T/C (second compound 1 µM, first compound 10 µM) of 91.2% and a viability, T/C [12] of 98.1%. It also gave a viability, T/C [13] of 105%, a viability, T/C (second compound 3.16 µM, first compound 0.316 µM) of 95.5% and a viability, T/C (second compound 3.16 µM, first compound 1 µM) of 98.1%. For the same compound, the viability, T/C (second compound 3.16 µM, first compound 3.16 µM) was 93.8%, the viability, T/C (second compound 3.16 µM, first compound 10 µM) was 88.4% and the viability, T/C [14] was 98.7%. The viability, T/C [15] was 102%, the viability, T/C (second compound 10 µM, first compound 0.316 µM) was 92.1% and the viability, T/C (second compound 10 µM, first compound 1 µM) was 85.4%. It also gave a viability, T/C (second compound 10 µM, first compound 3.16 µM) of 93.4% and a viability, T/C (second compound 10 µM, first compound 10 µM) of 94.7%.
